Patent US9427433B2, “Methods and compositions for enhancing fertility and/or inhibiting pregnancy failure and restoring glucose tolerance” (Queen's University at Kingston, priority 2011, dated 2016)

How the values were obtained:
[1] = tested on: female NZO mice fed a continuous high fat diet; assay: Weight loss, comparison of macrolides; assay type: in vivo, mouse; conditions: tacrolimus 0.05 or 0.1 mg/kg, pimecrolimus 0.1 mg/kg, sirolimus 0.1 mg/kg s.c. every other day for three weeks; vs vehicle
Description: For the comparative evaluation of other macrolide drugs to tacrolimus, mice starting at 7 weeks of age were maintained on the high fat diet for a total of 13 weeks of study period. Mice were entered into the experiments when determined to be glucose intolerant as described above. Methods of drug administration and other experimental methods were as described above.

[2] = rats, subcutaneous 0.1 mg/kg every other day (q2d); cited from earlier work
[3] = tested on: IFN-γ mRNA; assay: Decidual/placental IFN-γ mRNA levels; assay type: in vivo, mouse; conditions: mid- to late pregnancy; NOD mice, 1 or 0.1 mg/kg q2d for three weeks with or without 10 mg/kg loading dose
Experimental: In these studies, pregnancy progression and the glycemic control of mice treated with tacrolimus were examined. In an initial set of experiments, a loading dose of 10 mg/kg was initially administered to mice at the pre-diabetic stage followed by a maintenance dose of 1 or 0.1 mg/kg every other day (q2d) for three weeks after the last injection of which animals were allowed to mate and get pregnant. In an additional set of experiments mice were injected every other day with either 1 or 0.1 mg/kg dose for three weeks during the pre-diabetic stage and after the last injection of which mice were mated and examined for the progress of their pregnancy. Ultrasonic, vascular resistance index measurements, morphologic analyses were conducted on immunosuppressed and control NOD dams and their gestational uterine samples throughout pregnancy. Uterine, decidual and placental IFN-γ mRNA levels were also measured. Immunosuppressed NOD mice achieved and maintained normal glucose homeostasis with normal pregnancy pattern and a higher rate of viably implanted embryos and fetuses having normal phenotypic appearance. Placentae of NOD mice treated with tacrolimus were more deciduomatous, and the integrity of the stem, anchoring and branching placental villi were maintained. […]

[4] = tested on: type 2 diabetic NZO and DIO mice; assay: Serum testosterone and luteinizing hormone (PCOS phenotype); assay type: in vivo, mouse
Experimental: Hypertestosteronism (Hyperandrogenism) and low serum levels of Luteinizing hormone (LH) are among the cardinal biochemical features of established PCOS syndrome. […] Serum samples from tacrolimus-treated and saline-injected type 2 diabetic NZO and DIO mice were analyzed for their testosterone and luteinizing hormone (LH) levels in the morning of vaginal plug detection after mating and at 4.5 days later to assess the integrity of their pituitary-ovarian endocrine interactions during successful mating and at embryo implantation.
Twenty NZO and DIO/B6 female mice were maintained on a high fat diet consisted of 60% kcal fat, 20% kcal protein and 20% kcal carbohydrate, with a total energy mass of 5.24 kcal/gm (D12492, Research Diets Inc.; Cedarlane Laboratories, Burlington, Ontario, Canada) starting at 7 weeks of age and maintained on the diet for a total of 12 weeks of study period during which their weekly body weight changes and non-fasting blood glucose values were recorded. Mice which became obese as defined by having a Body mass index (BMI) value of 30, and tested positive for glucose intolerance were selected for an initial treatment episode with tacrolimus after being fed for four weeks with the high fat diet (See FIG. 2). […]

[5] = tested on: diabetic and prediabetic mice; assay: Body weight in diabetic and prediabetic NOD mice; assay type: in vivo, mouse; conditions: throughout the study period; FIG. 19A
Experimental: Fifty four NOD mice at the prediabetic and early diabetic stages were carefully selected to match the criteria of being 2 standard deviation heavier in body weight than their age-matched normoglycemic control mice and having blood glucose value of >14.9 mM/1 during the glucose tolerance test. The selected mice were 9 weeks old and were treated with 0.1 mg/kg q2d of tacrolimus (Prograf (5 mg/ml), Astellas) subcutaneously administered in 0.2 ml saline for three weeks after which animals were mated to males of the same strain (See FIG. 1). Vehicle (0.2 ml saline, s.q.) treated hyperglycemic NOD female mice were allowed two weeks in diabetes before they were mated to males of the same strain. Facial (mandibular) venous blood samples were collected from treated animals at 24 and 48 hours between injections and at pregnancy days 0.5, 2.5, 4.5, 6.5, 8.5, 10.5, 12.5, 14.5, 16.5 and 18.5 respectively following a standard procedure for facial bleed in mice (Golde et al Lab Anim (NY) 2005 34:39-43).

[6] = tested on: type 2 diabetes NZO mouse model; assay: HOMA-IR, HOMA-B and insulin sensitivity index (Si); assay type: in vivo
Experimental: Female mice were administered tacrolimus (0.1 mg/kg or 0.05 mg/kg, n=6/group), vehicle (n=10), pimecrolimus (0.1 mg/kg, n=6) or sirolimus (0.1 mg/kg, n=6) subcutaneously every other day for 3 weeks.
HOMA IR=fasting glucose (mmol/L)×fasting insulin ([…])/22.5 according to the method of Bonora E et al., 2000. Pancreatic β-Cell function (HOMA-B) was calculated according to the method of Tresaco B et al., 2005, HOMA-B=[20×[…]). Insulin sensitivity (Si) was determined according to the method of Matthews D et al., 1985. Si=[basal glucose]−[glucose 15 min]/15).

SMILES: C=CC[C@@H]1/C=C(\C)C[C@H](C)C[C@H](OC)[C@H]2O[C@@](O)(C(=O)C(=O)N3CCCC[C@H]3C(=O)O[C@H](/C(C)=C/[C@@H]3CC[C@@H](O)[C@H](OC)C3)[C@H](C)[C@@H](O)CC1=O)[C@H](C)C[C@@H]2OC [tacrolimus]
- weight loss [1]: significantly induced weight loss
- maximal blood concentration [2]: 0.6 nanograms/ml
- decidual/placental IFN-γ mRNA [3]: Lower normal levels of decidual/placental IFN-γ mRNA
- pituitary-ovarian response and hormonal release to mating ([4]; morning of vaginal plug and 4.5 days later): restored normal pituitary-ovarian response and hormonal release to mating
- development of PCOS phenotype (hypertestosteronism, low serum LH) ([4]; short-term administration, high fat diet): prevented the development of PCOS phenotype
- body weight gain [5]: maintained normal body weight gain
- insulin resistance (HOMA-IR) ([6]; p<0.001 vs vehicle): significantly reduced insulin resistance
- insulin sensitivity (Si) ([6]; p<0.01 vs vehicle): enhanced insulin sensitivity
- pancreatic β-cell function (HOMA-B) ([6]; p<0.05 vs vehicle): enhanced pancreatic β-cell function
